Experimental data published in patent publication US20120178765A1, “NOVEL GLUCOKINASE ACTIVATORS AND PROCESSES FOR THE PREPARATION THEREOF” (YUHAN CORPORATION, priority 2009, published 2012).

What follows are compounds tested against T1, Glucokinase (Homo sapiens, UniProt P35557) (assay: Glucokinase activation assay (NADPH absorbance at 340 nm)). Conditions: glucokinase (ProteinOne Inc.), 5 mM D(+)-glucose, 24° C., 90 minutes.
T1 construct: purchased ProteinOne Inc
T1 sequence (P35557 1-465): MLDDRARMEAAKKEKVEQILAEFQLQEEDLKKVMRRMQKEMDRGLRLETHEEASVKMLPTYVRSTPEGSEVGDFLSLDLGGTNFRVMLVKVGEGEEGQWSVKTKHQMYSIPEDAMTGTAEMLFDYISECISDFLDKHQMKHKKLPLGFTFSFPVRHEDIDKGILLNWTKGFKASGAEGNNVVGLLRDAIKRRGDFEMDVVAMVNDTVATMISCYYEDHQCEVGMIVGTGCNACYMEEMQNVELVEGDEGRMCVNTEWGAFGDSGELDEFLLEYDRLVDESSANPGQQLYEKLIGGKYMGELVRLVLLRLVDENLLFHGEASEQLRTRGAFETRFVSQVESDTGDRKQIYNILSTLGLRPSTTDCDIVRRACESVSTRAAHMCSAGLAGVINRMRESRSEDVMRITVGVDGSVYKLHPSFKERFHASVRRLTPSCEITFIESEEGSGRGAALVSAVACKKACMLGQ
Assay type: biochemical
Description: The amounts of glucokinase activation were determined by measuring the levels of NADPH (the final metabolite of glucose through glucokinase-mediated phospho-rylation) and then calculating to glucokinase activities.
Glucokinase (ProteinOne Inc.) was added, in the concentration of 100 ng/uL, to a enzyme-reaction medium (25 mM HEPES pH 7, 25 mM KCL, 1 mM MgCl, 5 mM D(+)-glucose, 1 mM ATP, 1 mM NADP, 1 mM DTT, and 2.5 u/mL G6PDH). Each compound in predetermined concentrations was added to the enzyme-reaction medium and then absorbance (First Absorbance) was measured at 340 nm of wavelength. After measuring the first absorbance, each reaction mixture was incubated at 24° C. for 90 minutes and then absorbance (Second Absorbance) was re-measured at 340 nm of wavelength. Using changes between First Absorbance and Second Absorbance, glucokinase activity was calculated. In the calculation, a maximum activity of the test compound (Emax), in comparison to the control group (no treatment of compound) was determined and then EC50 was calculated using the software for statistical analysis “Prism”, based on the activity-changes according to concentrations of the test compounds.
The amounts of glucokinase activation of the compounds of Comparative Examples 1 and 2 were determined, in accordance with the same procedures as in Test Example 1.

Compound | EC50
3-{2-[4-(2-(thiophen-2-yl)acetylamino)phenyl]ethyl}-5-(2-methoxy-(1S)-methyl-ethoxy)-N-(thiazol-2-yl)-benzamide [Example 143] | 0.284 µM
3-{2-[4-(3,5-dimethoxybenzoylamino)phenyl]ethyl}-5-(2-methoxy-(1S)-methyl-ethoxy)-N-(thiazol-2-yl)-benzamide [Example 141] | 0.355 µM
3-{2-[4-(3-ethyl-thio-ureido)phenyl]ethyl}-5-(2-methoxy-(1S)-methyl-ethoxy)-N-(thiazol-2-yl)-benzamide [Example 146] | 0.454 µM
3-{2-[4-(3-methyl-butyrylamino)phenyl]ethyl}-5-(2-methoxy-(1S)-methyl-ethoxy)-N-(thiazol-2-yl)-benzamide [Example 134] | 0.355 µM
3-{2-[4-(3-phenyl-ureido)phenyl]ethyl}-5-(2-methoxy-(1S)-methyl-ethoxy)-N-(thiazol-2-yl)-benzamide [Example 145] | 0.319 µM
3-{2-[4-(4-chlorobenzoylamino)phenyl]ethyl}-5-(2-methoxy-(1S)-methyl-ethoxy)-N-(thiazol-2-yl)-benzamide [Example 140] | 0.44 µM
3-{2-[4-(4-fluorobenzoylamino)phenyl]ethyl}-5-(2-methoxy-(1S)-methyl-ethoxy)-N-(t hiazol-2-yl)-benzamide [Example 139] | 0.371 µM
3-{2-[4-(phenylacetylamino)phenyl]ethyl}-5-(2-methoxy-(1S)-methyl-ethoxy)-N-(thiazol-2-yl)-benzamide [Example 137] | 0.271 µM
COC[C@H](C)Oc1cc(/C=C/c2ccccc2F)cc(C(=O)Nc2nccs2)c1 (stereo in doubt) [Example 6, 3-[trans-2-(2-fluorophenyl)vinyl]-5-(2-methoxy-(1S)-methyl-ethoxy)-N-(thiazol-2-yl)-benzamide] | 0.0385 µM
COC[C@H](C)Oc1cc(/C=C/c2c(F)cccc2F)cc(C(=O)Nc2ccn(C)n2)c1 (stereo in doubt) [Example 37, 3-[trans-2-(2,6-difluorophenyl)vinyl]-5-(2-methoxy-(1S)-methyl-ethoxy)-N-(1-methyl-1H-pyrazol-3-yl)-benzamide] | 0.161 µM
COC[C@H](C)Oc1cc(/C=C/c2cc(OC)cc(OC)c2)cc(C(=O)Nc2ccn(C)n2)c1 (stereo in doubt) [Example 40, 3-[trans-2-(3,5-dimethoxyphenyl)vinyl]-5-(2-methoxy-(1S)-methyl-ethoxy)-N-(1-methyl-1H-pyrazol-3-yl)-benzamide] | 0.174 µM
COC[C@H](C)Oc1cc(/C=C/c2ccccc2Cl)cc(C(=O)Nc2ccn(C)n2)c1 (stereo in doubt) [Example 46, 3-[trans-2-(2-chlorophenyl)vinyl]-5-(2-methoxy-(1S)-methyl-ethoxy)-N-(1-methyl-1H-pyrazol-3-yl)-benzamide] | 0.149 µM
CC(C)Oc1cc(/C=C/c2ccccn2)cc(C(=O)Nc2ccc(C(=O)O)cn2)c1 [Comparative Example 1, reference compound] | 2.45 µM
CC(C)/C=C\c1cc(OC(C)C)cc(C(=O)Nc2ncc(C(=O)O)s2)c1 [Comparative Example 2, reference compound] | 1.87 µM
Cc1ccc(/C=C/c2cc(OCC(C)C)cc(C(=O)Nc3nccs3)c2)cc1 [Example 1, 3-[trans-2-(p-tolyl)vinyl]-5-isobutoxy-N-(thiazol-2-yl)-benzamide] | 0.164 µM
CC(C)COc1cc(/C=C/c2ccc(F)cc2)cc(C(=O)Nc2nccs2)c1 [Example 2, 3-[trans-2-(4-fluorophenyl)vinyl]-5-isobutoxy-N-(thiazol-2-yl)-benzamide] | 0.172 µM
CC(C)COc1cc(/C=C/c2ccccc2[N+](=O)[O-])cc(C(=O)Nc2nccs2)c1 [Example 3, 3-[trans-2-(2-nitrophenyl)vinyl]-5-isobutoxy-N-(thiazol-2-yl)-benzamide] | 0.0902 µM
COc1ccc(/C=C/c2cc(OCC(C)C)cc(C(=O)Nc3nccs3)c2)cc1OC [Example 4, 3-[trans-2-(3,4-dimethoxyphenyl)vinyl]-5-isobutoxy-N-(thiazol-2-yl)-benzamide] | 0.222 µM
COc1cccc(/C=C/c2cc(OCC(C)C)cc(C(=O)Nc3nccs3)c2)c1OC [Example 5, 3-[trans-2-(2,3-dimethoxyphenyl)vinyl]-5-isobutoxy-N-(thiazol-2-yl)-benzamide] | 0.173 µM
CC(C)COc1cc(/C=C/c2ccccc2F)cc(C(=O)Nc2nccs2)c1 [Example 70, 3-[trans-2-(2-fluorophenyl)vinyl]-5-isobutoxy-N-(thiazol-2-yl)-benzamide] | 0.102 µM
CC(C)COc1cc(/C=C/c2cc(F)ccc2F)cc(C(=O)Nc2nccs2)c1 [Example 71, 3-[trans-2-(2,5-difluorophenyl)vinyl]-5-isobutoxy-N-(thiazol-2-yl)-benzamide] | 0.0848 µM

Other lines, results leading:

EC50 | Compound
0.0147 µM | COC[C@H](C)Oc1cc(/C=C/c2c(F)cccc2F)cc(C(=O)Nc2nccs2)c1 [Example 12, 3-[trans-2-(2,6-difluorophenyl)vinyl]-5-(2-methoxy-(1S)-methyl-ethoxy)-N-(thiazol-2-yl)-benzamide]
0.0127 µM | COC[C@H](C)Oc1cc(/C=C/c2ccccc2[N+](=O)[O-])cc(C(=O)Nc2nccs2)c1 [Example 13, 3-[trans-2-(2-nitrophenyl)vinyl]-5-(2-methoxy-(1S)-methyl-ethoxy)-N-(thiazol-2-yl)-benzamide]
0.239 µM | COC[C@H](C)Oc1cc(/C=C/c2cccc([N+](=O)[O-])c2)cc(C(=O)Nc2ccn(C)n2)c1 [Example 38, 3-[trans-2-(3-nitrophenyl)vinyl]-5-(2-methoxy-(1S)-methyl-ethoxy)-N-(1-methyl-H-pyrazol-3-yl)-benzamide]
0.276 µM | COC[C@H](C)Oc1cc(/C=C/c2ccccc2OC)cc(C(=O)Nc2ccc(C(=O)OC)cn2)c1 [Example 61, 3-[trans-2-(2-methoxyphenyl)vinyl]-5-(2-methoxy-(1S)-methyl-ethoxy)-N-(nicotinic acid-3-methyl ester-6-yl)-benzamide]
0.106 µM | COC[C@H](C)Oc1cc(/C=C/c2ccccc2[N+](=O)[O-])cc(C(=O)Nc2ccc(C(=O)OC)cn2)c1 [Example 62, 3-[trans-2-(2-nitrophenyl)vinyl]-5-(2-methoxy-(1S)-methyl-ethoxy)-N-(nicotinic acid-3-methyl ester-6-yl)-benzamide]
0.403 µM | COC[C@H](C)Oc1cc(/C=C/c2cccc([N+](=O)[O-])c2)cc(C(=O)Nc2ccc(C(=O)OC)cn2)c1 [Example 63, 3-[trans-2-(3-nitrophenyl)vinyl]-5-(2-methoxy-(1S)-methyl-ethoxy)-N-(nicotinic acid-3-methyl ester-6-yl)-benzamide]
0.159 µM | COC[C@H](C)Oc1cc(/C=C/c2ccccc2F)cc(C(=O)Nc2ccc(C(=O)OC)cn2)c1 [Example 64, 3-[trans-2-(2-fluorophenyl)vinyl]-5-(2-methoxy-(1S)-methyl-ethoxy)-N-(nicotinic acid-3-methyl ester-6-yl)-benzamide]
0.292 µM | COC[C@H](C)Oc1cc(/C=C/c2ccc(F)cc2)cc(C(=O)Nc2ccc(C(=O)OC)cn2)c1 [Example 65, 3-[trans-2-(4-fluorophenyl)vinyl]-5-(2-methoxy-(1S)-methyl-ethoxy)-N-(nicotinic acid-3-methyl ester-6-yl)-benzamide]
0.387 µM | COC[C@H](C)Oc1cc(/C=C/c2cccc(F)c2F)cc(C(=O)Nc2ccc(C(=O)OC)cn2)c1 [Example 66, 3-[trans-2-(2,3-difluorophenyl)vinyl]-5-(2-methoxy-(1S)-methyl-ethoxy)-N-(nicotinic acid-3-methyl ester-6-yl)-benzamide]
0.231 µM | COC[C@H](C)Oc1cc(/C=C/c2ccc(F)cc2F)cc(C(=O)Nc2ccc(C(=O)OC)cn2)c1 [Example 67, 3-[trans-2-(2,4-difluorophenyl)vinyl]-5-(2-methoxy-(1S)-methyl-ethoxy)-N-(nicotinic acid-3-methyl ester-6-yl)-benzamide]
0.355 µM | COC[C@H](C)Oc1cc(/C=C/c2cc(F)ccc2F)cc(C(=O)Nc2ccc(C(=O)OC)cn2)c1 [Example 68, 3-[trans-2-(2,5-difluorophenyl)vinyl]-5-(2-methoxy-(1S)-methyl-ethoxy)-N-(nicotinic acid-3-methyl ester-6-yl)-benzamide]
0.146 µM | COC[C@H](C)Oc1cc(/C=C/c2c(F)cccc2F)cc(C(=O)Nc2ccc(C(=O)OC)cn2)c1 [Example 69, 3-[trans-2-(2,6-difluorophenyl)vinyl]-5-(2-methoxy-(1S)-methyl-ethoxy)-N-(nicotinic acid-3-methyl ester-6-yl)-benzamide]
